According to patent publication US20230277534A1 (Plexxikon Inc., priority 2011, published 2023):

How the values were obtained:
B-Raf V600E = B-Raf V600E (Homo sapiens (Human), UniProt P15056, V600E); test: B-Raf V600E kinase biochemical activity assay (AlphaScreen, biotin-MEK1 substrate); conditions: 100 μM ATP
In short: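 B-Raf V600E (0.1 ng) phosphorylated 100 nM biotin-MEK1 with 100 μM ATP (final) in HEPES pH 7.0 with Mg2+/Mn2+ for 45 min at room temperature. Compounds were tested over an 8-point serial dilution. Phospho-MEK1/2 was detected by AlphaScreen after 3 h with beads, and IC50 came from signal versus concentration.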

[1] = system: IPC-298 human melanoma cell line that expresses activated NRAS; test: IPC-298_P-ERK cell activation assay (phosphorylated ERK, AlphaScreen); format: cell-based; conditions: IPC-298 cells, P-ERK activation
Description: B9 is a squamous cell carcinoma cell line expressing activated HRAS that was isolated from a DMBA/TPA-induced mouse model of skin carcinogenesis (Stoler, et al. The Journal of Cell Biology, 1993, 122(5), 1103-17). IPC-298 is a human melanoma cell line that expresses activated NRAS (Aubert, et al. International Journal of Cancer, 1993, 54(5), 784-92). To determine whether compounds induce phosphorylated ERK and MEK, cells are plated in a 96-well dish and treated with an 8-point titration of compound for one hour at 37° C. The media is then removed and the cells are incubated with lysis buffer containing protease and phosphatase inhibitors. Phosphorylated ERK and MEK in the resulting lysates is detected using AlphaScreen™ technology. To detect phosphorylated ERK, cell lysates are incubated with streptavidin-coated donor beads, anti-mouse IgG acceptor beads, a biotinylated anti-ERK1/2 rabbit antibody, and a mouse antibody that recognizes ERK1/2 only when it is phosphorylated on Thr202 and Tyr204. The biotinylated ERK1/2 antibody will bind to both the streptavidin-coated donor beads and to ERK1/2 (regardless of its phosphorylation state), and the phospho-ERK1/2 antibody will bind to the acceptor beads and to ERK1/2 that is phosphorylated at Thr202/Tyr204. Excitation of the beads with laser light at 680 nm produces singlet oxygen, which is rapidly quenched unless the beads are in close proximity. When ERK is phosphorylated, both antibodies can bind the same protein, bringing the donor and acceptor beads into close proximity, producing a signal that can be measured at 580 nm. MEK phosphorylation is detected using a similar approach, only with antibodies directed against total MEK1/2 and MEK1/2 that is phosphorylated at Ser217 and Ser221.

[2] = system: COLO205 colon adenocarcinoma cells (B-Raf V600E mutation); test: COLO205 cell growth inhibition (ATPlite); format: cell-based; conditions: Homo sapiens, COLO 205, 72 h, 3 days
In short: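 Cells treated for 3 days at 37 °C, 5% CO2 with an 8-point 1:3 dilution series, top final concentration 10 μM, DMSO control. ATPlite luminescence used as a measure of cell number; IC50 from reading versus concentration.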

Sequence of B-Raf V600E (P15056 whole entry V600E): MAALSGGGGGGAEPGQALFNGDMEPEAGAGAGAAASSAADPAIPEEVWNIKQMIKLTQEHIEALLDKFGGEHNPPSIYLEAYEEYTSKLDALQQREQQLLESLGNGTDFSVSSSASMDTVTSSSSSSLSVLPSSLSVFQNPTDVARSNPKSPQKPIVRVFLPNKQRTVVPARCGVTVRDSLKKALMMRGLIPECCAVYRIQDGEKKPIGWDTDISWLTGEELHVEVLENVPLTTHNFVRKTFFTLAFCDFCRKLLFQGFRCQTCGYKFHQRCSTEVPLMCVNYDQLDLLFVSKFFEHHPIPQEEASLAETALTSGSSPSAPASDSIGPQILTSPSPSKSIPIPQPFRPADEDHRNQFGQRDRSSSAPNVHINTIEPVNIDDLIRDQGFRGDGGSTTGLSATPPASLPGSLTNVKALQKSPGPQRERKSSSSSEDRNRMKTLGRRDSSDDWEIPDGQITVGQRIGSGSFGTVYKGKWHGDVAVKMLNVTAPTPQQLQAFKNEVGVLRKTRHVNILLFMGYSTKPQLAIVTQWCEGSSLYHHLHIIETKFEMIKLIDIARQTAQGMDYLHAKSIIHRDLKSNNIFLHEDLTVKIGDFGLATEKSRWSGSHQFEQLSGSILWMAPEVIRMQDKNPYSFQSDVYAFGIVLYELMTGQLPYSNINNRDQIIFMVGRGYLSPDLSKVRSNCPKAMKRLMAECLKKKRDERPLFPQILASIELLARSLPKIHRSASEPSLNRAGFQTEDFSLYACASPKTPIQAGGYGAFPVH

IC50 (B-Raf V600E) [µM] | EC50 ([1]; 1 h, compound for one hour) [µM] | IC50 [2] [µM] | EC50 ([1]; compounds known in the art) [µM] | SMILES
< 0.1 | > 10 | < 1 |  | N#CC1(c2ccc(-c3cnc4[nH]cc(C(=O)c5cccc(NS(=O)(=O)N6CCCC6)c5F)c4c3)cc2)CC1 [Compound P-0050, N-[3-[5-[4-(1-cyanocyclopropyl)phenyl]-1H-pyrrolo[2,3-b]pyridine-3-carbonyl]-2-fluoro-phenyl]pyrrolidine-1-sulfonamide]
 | > 10 |  |  | O=C(c1c(F)ccc(NS(=O)(=O)N2CCCC2)c1F)c1c[nH]c2ncc(I)cc12 [Compound P-0024]
 |  |  | < 0.5 | CCCS(=O)(=O)Nc1ccc(F)c(C(=O)c2c[nH]c3ncc(Cl)cc23)c1F
 | > 10 |  |  | CN(C)c1ncc(-c2cnc3[nH]cc(C(=O)c4c(F)ccc(NS(=O)(=O)N5CCCC5)c4F)c3c2)cn1 [Compound P-0022]
 | > 10 |  |  | CN(C)c1ccc(-c2cnc3[nH]cc(C(=O)c4cccc(NS(=O)(=O)N(C)C)c4F)c3c2)cn1 [Compound P-0030]
< 0.1 | > 10 |  |  | CCN(C)S(=O)(=O)Nc1cccc(C(=O)c2c[nH]c3ncc(-c4ccccc4)cc23)c1F [Compound P-0036, 3-[3-[[ethyl(methyl)sulfamoyl]amino]-2-fluoro-benzoyl]-5-phenyl-1H-pyrrolo[2,3-b]pyridine]
 | > 10 | < 1 |  | COc1ncc(-c2cnc3[nH]cc(C(=O)c4cccc(NS(=O)(=O)N(C)C5CC5)c4F)c3c2)cn1 [Compound P-0025]
< 0.1 | > 4 |  |  | CCN(C)S(=O)(=O)Nc1ccc(F)c(C(=O)c2c[nH]c3ncc(-c4ccc(C#N)cc4)cc23)c1F [Compound P-0300, 5-(4-cyanophenyl)-3-[3-[[ethyl(methyl)sulfamoyl]amino]-2,6-difluoro-benzoyl]-1H-pyrrolo[2,3-b]pyridine]
 | > 10 | < 1 |  | Cn1cc(-c2cnc3[nH]cc(C(=O)c4cccc(NS(=O)(=O)CC5CC5)c4F)c3c2)cn1 [Compound P-0042, 1-cyclopropyl-N-[2-fluoro-3-[5-(1-methylpyrazol-4-yl)-1H-pyrrolo[2,3-b]pyridine-3-carbonyl]phenyl]methanesulfonamide]
 | > 10 | > 1 |  | CCN(C)S(=O)(=O)Nc1cccc(C(=O)c2c[nH]c3ncc(-c4ccc(F)cc4)cc23)c1F [Compound P-0034]
 |  |  | < 0.5 | COc1ncc(-c2cnc3[nH]cc(C(=O)c4c(F)ccc(NS(=O)(=O)c5ccccc5F)c4F)c3c2)cn1
 | > 10 | < 1 |  | CCN(C)S(=O)(=O)Nc1cccc(C(=O)c2c[nH]c3ncc(-c4ccc(C)nc4)cc23)c1F [Compound P-0033]
 | > 10 | < 1 |  | CCN(C)S(=O)(=O)Nc1cccc(C(=O)c2c[nH]c3ncc(-c4cnc(OC)nc4)cc23)c1F [Compound P-0020]
< 0.1 | > 10 |  |  | O=C(c1c(F)ccc(NS(=O)(=O)N2CCCC2)c1F)c1c[nH]c2ncc(-c3ccc(Cl)cc3)cc12 [Compound P-0021]
 | > 10 | < 1 |  | COc1ncc(-c2cnc3[nH]cc(C(=O)c4cccc(NS(=O)(=O)N5CCCC5)c4F)c3c2)c(OC)n1 [Compound P-0044, N-[3-[5-(2,4-dimethoxypyrimidin-5-yl)-1H-pyrrolo[2,3-b]pyridine-3-carbonyl]-2-fluoro-phenyl]pyrrolidine-1-sulfonamide]
< 0.1 | > 10 |  |  | O=C(c1c(F)ccc(NS(=O)(=O)N2CCCC2)c1F)c1c[nH]c2ncc(F)c(I)c12 [Compound P-0015, N-[2,4-difluoro-3-(5-fluoro-4-iodo-1H-pyrrolo[2,3-b]pyridine-3-carbonyl)phenyl]pyrrolidine-1-sulfonamide]
< 0.1 | > 10 |  |  | CCN(C)S(=O)(=O)Nc1cccc(C(=O)c2c[nH]c3ncc(-c4ccc(C5(C#N)CC5)cc4)cc23)c1F [Compound P-0061, 5-[4-(1-cyanocyclopropyl)phenyl]-3-[3-[[ethyl(methyl)sulfamoyl]amino]-2-fluoro-benzoyl]-1H-pyrrolo[2,3-b]pyridine]

IC50 (B-Raf V600E) [µM] | EC50 ([1]; 1 h, compound for one hour) [µM] | IC50 [2] [µM] | EC50 ([1]; compounds known in the art) [µM] | SMILES
 | > 10 | > 1 |  | CCN(C)S(=O)(=O)Nc1cccc(C(=O)c2c[nH]c3ncc(C#N)cc23)c1F [Compound P-0039, 5-cyano-3-[3-[[ethyl(methyl)sulfamoyl]amino]-2-fluoro-benzoyl]-1H-pyrrolo[2,3-b]pyridine]
 | > 10 |  |  | Cc1ccc(-c2cnc3[nH]cc(C(=O)c4cccc(NS(=O)(=O)N(C)C)c4F)c3c2)cn1 [Compound P-0029]
 | > 10 | > 1 |  | CCN(C)S(=O)(=O)Nc1cccc(C(=O)c2c[nH]c3ncc(-c4ccc(Cl)cc4)cc23)c1F [Compound P-0019]
 | > 10 |  |  | CCN(C)S(=O)(=O)Nc1cccc(C(=O)c2c[nH]c3ncc(-c4ccc(C#N)cc4)cc23)c1F [Compound P-0031]
 | > 10 |  |  | CNS(=O)(=O)Nc1cccc(C(=O)c2c[nH]c3ncc(-c4cnc(OC)nc4)cc23)c1F [Compound P-0026]
 |  |  | < 1 | COc1ncc(-c2cnc3[nH]cc(C(=O)c4c(F)ccc(NS(=O)(=O)c5cc(F)ccc5F)c4F)c3c2)cn1
 | > 10 | > 1 |  | CN(C)S(=O)(=O)Nc1cccc(C(=O)c2c[nH]c3ncc(-c4ccc(F)cc4)cc23)c1F [Compound P-0035]
> 0.1 | > 4 |  |  | NS(=O)(=O)Nc1ccc(F)c(C(=O)c2c[nH]c3ncc(-c4cnc(C5CC5)nc4)cc23)c1F [Compound P-0336, 5-(2-cyclopropylpyrimidin-5-yl)-3-[2,6-difluoro-3-(sulfamoylamino)benzoyl]-1H-pyrrolo[2,3-b]pyridine]
< 0.1 | > 10 |  |  | CN(C)c1ccc(-c2cnc3[nH]cc(C(=O)c4cccc(NS(=O)(=O)N5CCCC5)c4F)c3c2)cn1 [Compound P-0046, N-[3-[5-[6-(dimethylamino)-3-pyridyl]-1H-pyrrolo[2,3-b]pyridine-3-carbonyl]-2-fluoro-phenyl]pyrrolidine-1-sulfonamide]
 | > 8 | < 1 |  | CCN(C)S(=O)(=O)Nc1ccc(F)c(C(=O)c2c[nH]c3ncc(-c4cnc(OC)nc4)cc23)c1F [Compound P-0014]
< 0.1 | > 10 |  |  | CN(C)S(=O)(=O)Nc1cccc(C(=O)c2c[nH]c3ncc(-c4ccccc4)cc23)c1F [Compound P-0037, 3-[3-(dimethylsulfamoylamino)-2-fluoro-benzoyl]-5-phenyl-1H-pyrrolo[2,3-b]pyridine]
> 0.1 | > 10 |  |  | COc1ncc(-c2cnc3[nH]cc(C(=O)c4cccc(NS(=O)(=O)N5CCC(OCc6ccccc6)C5)c4F)c3c2)cn1 (centres unmarked) [Compound P-0041, 3-benzyloxy-N-[2-fluoro-3-[5-(2-methoxypyrimidin-5-yl)-1H-pyrrolo[2,3-b]pyridine-3-carbonyl]phenyl]pyrrolidine-1-sulfonamide]
 | > 10 |  |  | CCN(C)S(=O)(=O)Nc1cccc(C(=O)c2c[nH]c3ncc(-c4cccnc4)cc23)c1F [Compound P-0032]
 | > 4 | < 1 |  | COc1cc(-c2cnc3[nH]cc(C(=O)c4c(F)ccc(NS(=O)(=O)N5CCCC5)c4F)c3c2)ccn1 [Compound P-0287, N-[2,4-difluoro-3-[5-(2-methoxy-4-pyridyl)-1H-pyrrolo[2,3-b]pyridine-3-carbonyl]phenyl]pyrrolidine-1-sulfonamide]
< 0.1 | > 2 |  |  | O=C(c1c(F)ccc(NS(=O)(=O)N2CCC(F)(F)C2)c1F)c1c[nH]c2ncc(-c3cnc(C4CC4)nc3)cc12 [Compound P-0288, N-[3-[5-(2-cyclopropylpyrimidin-5-yl)-1H-pyrrolo[2,3-b]pyridine-3-carbonyl]-2,4-difluoro-phenyl]-3,3-difluoro-pyrrolidine-1-sulfonamide]
< 0.1 |  | < 1 |  | CCC(C)S(=O)(=O)Nc1cccc(C(=O)c2c[nH]c3ncc(-c4cnc(OC)nc4)cc23)c1F (centres unmarked) [Compound P-0224, N-[2-fluoro-3-[5-(2-methoxypyrimidin-5-yl)-1H-pyrrolo[2,3-b]pyridine-3-carbonyl]phenyl]butane-2-sulfonamide]
< 0.1 |  | < 1 |  | CCC(C)S(=O)(=O)Nc1cccc(C(=O)c2c[nH]c3ncc(-c4cnc(C(C)C)nc4)cc23)c1F (centres unmarked) [Compound P-0229, N-[2-fluoro-3-[5-(2-isopropylpyrimidin-5-yl)-1H-pyrrolo[2,3-b]pyridine-3-carbonyl]phenyl]butane-2-sulfonamide]
